Results: patent US20260262643A1, “HERBICIDAL BENZOXAZINES” (FMC CORPORATION, priority 2022, published 2026)

Columns and labels:
[1] = tested on: horseweed; test: Test C postemergence; assay type: in vivo, Erigeron canadensis; settings: 10 days
Summary of the method: (§1)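 Test material, in non-phytotoxic solvent with surfactant, was sprayed on the soil directly after seeding (preemergence) or on young plants of 2–10 cm with one to two leaves (postemergence). Greenhouse, 10 days; 0–100 visual control scale.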

[2] = tested on: sedge, umbrella; test: Test D flooded paddy test; assay type: in vivo, Cyperus difformis; settings: 250 g ai/ha, applied to paddy water, visual rating after 13 to 14 days, scale 0 to 100 (0 no effect, 100 complete control)
Summary of the method: (§2)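 Visual ratings from 0, meaning no effect, to 100, meaning complete control, were assigned against untreated controls 13 to 14 days after compounds were added to the floodwater of pots kept 3 cm deep, with plants at the 2-leaf stage.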

[3] = tested on: soybean; test: Test C preemergence; assay type: in vivo, Glycine max; settings: 0 to 100 scale (0 no effect, 100 complete control); for Soybean plant response rating: preemergence
Summary of the method: as §1

[4] = tested on: barnyardgrass; test: Test C preemergence; assay type: in vivo, Echinochloa crusgalli; settings: 0 to 100 scale (0 no effect, 100 complete control); for Plant response rating, Barnyardgrass: Preemergence, 500 g ai/ha, visual rating after 10 days; for Barnyardgrass plant response rating: Test C, preemergence, 125 g ai/ha
Summary of the method: as §1

[5] = tested on: corn; test: Test C preemergence; assay type: in vivo, Zea mays; settings: 0 to 100 scale (0 no effect, 100 complete control); for Corn plant response rating: preemergence
Summary of the method: as §1

[6] = tested on: green foxtail; test: Test C preemergence; assay type: in vivo, Setaria viridis; settings: 0 to 100 scale (0 no effect, 100 complete control); for Foxtail, Green plant response rating: preemergence
Summary of the method: as §1

[7] = tested on: soybean; test: Test C postemergence; assay type: in vivo, Glycine max; settings: 10 days
Summary of the method: as §1

[8] = tested on: wheat; test: Test C postemergence; assay type: in vivo, Triticum aestivum; settings: 10 days
Summary of the method: as §1

[9] = tested on: barnyardgrass; test: Test D flooded paddy test; assay type: in vivo, Echinochloa crus-galli; settings: 250 g ai/ha, applied to paddy water, visual rating after 13 to 14 days, scale 0 to 100 (0 no effect, 100 complete control)
Summary of the method: as §2

[10] = tested on: ryegrass, Italian; test: Test C postemergence; assay type: in vivo, Lolium multiflorum; settings: 125 g ai/ha, postemergence, 10 days; 0 to 100 scale, 0 no effect, 100 complete control
Summary of the method: as §1

[11] = tested on: rice; test: Test D flooded paddy test; assay type: in vivo, Oryza sativa; settings: 250 g ai/ha, applied to paddy water, visual rating after 13 to 14 days, scale 0 to 100 (0 no effect, 100 complete control)
Summary of the method: as §2

[12] = tested on: blackgrass; test: Test C preemergence; assay type: in vivo, Alopecurus myosuroides; settings: 0 to 100 scale (0 no effect, 100 complete control); for Plant response rating, Blackgrass: Preemergence, 500 g ai/ha, visual rating after 10 days; for Blackgrass plant response rating: Test C, preemergence, 125 g ai/ha
Summary of the method: as §1

[13] = tested on: oat, wild; test: Test C postemergence; assay type: in vivo, Avena fatua; settings: 10 days
Summary of the method: as §1

[14] = tested on: corn; test: Test C postemergence; assay type: in vivo, Zea mays; settings: 10 days
Summary of the method: as §1

[15] = tested on: blackgrass; test: Test C postemergence; assay type: in vivo, Alopecurus myosuroides; settings: 10 days
Summary of the method: as §1

[16] = tested on: green foxtail; test: Test C postemergence; assay type: in vivo, Setaria viridis; settings: 10 days
Summary of the method: as §1

[17] = tested on: kochia; test: Test C preemergence; assay type: in vivo, Bassia scoparia; settings: 0 to 100 scale (0 no effect, 100 complete control); for Kochia plant response rating: preemergence
Summary of the method: as §1

[18] = tested on: pigweed, palmer; test: Test C preemergence; assay type: in vivo, Amaranthus palmeri; settings: 0 to 100 scale (0 no effect, 100 complete control); for Pigweed, Palmer plant response rating: preemergence
Summary of the method: as §1

[19] = tested on: ragweed; test: Test C postemergence; assay type: in vivo, Ambrosia artemisiifolia; settings: 10 days
Summary of the method: as §1

[20] = tested on: wheat; test: Test C preemergence; assay type: in vivo, Triticum aestivum; settings: 0 to 100 scale (0 no effect, 100 complete control); for Wheat plant response rating: preemergence
Summary of the method: as §1

[21] = tested on: barnyardgrass; test: Test C postemergence; assay type: in vivo, Echinochloa crusgalli; settings: 10 days
Summary of the method: as §1

[22] = tested on: pigweed, palmer; test: Test C postemergence; assay type: in vivo, Amaranthus palmeri; settings: 10 days
Summary of the method: as §1

[23] = tested on: oat, wild; test: Test C preemergence; assay type: in vivo, Avena fatua; settings: 0 to 100 scale (0 no effect, 100 complete control); for Oat, Wild plant response rating: preemergence
Summary of the method: as §1

[24] = tested on: ducksalad; test: Test D flooded paddy test; assay type: in vivo, Heteranthera limosa; settings: 250 g ai/ha, applied to paddy water, visual rating after 13 to 14 days, scale 0 to 100 (0 no effect, 100 complete control)
Summary of the method: as §2

[25] = tested on: ragweed; test: Test C preemergence; assay type: in vivo, Ambrosia artemisiifolia; settings: 0 to 100 scale (0 no effect, 100 complete control); for Ragweed plant response rating: preemergence
Summary of the method: as §1

[26] = tested on: galium; test: Test C postemergence; assay type: in vivo, Galium aparine; settings: 10 days
Summary of the method: as §1

[27] = tested on: ryegrass, Italian; test: Test C preemergence; assay type: in vivo, Lolium multiflorum; settings: 0 to 100 scale (0 no effect, 100 complete control); for Ryegrass, Italian plant response rating: preemergence
Summary of the method: as §1

[28] = tested on: kochia; test: Test C postemergence; assay type: in vivo, Bassia scoparia; settings: 10 days
Summary of the method: as §1

[29] = 125 g ai/ha, postemergence, 0 to 100 scale, 0 no effect, 100 complete control
[30] = Postemergence, 500 g ai/ha, visual 0 to 100 scale (0 no effect, 100 complete control)
[31] = Preemergence, 500 g ai/ha, visual rating after 10 days

COc1ccc(-n2cncn2)cc1C(=O)N1C[C@H](C)Oc2c(F)cccc21 [Compound 270]
Plant response rating, Horseweed [1, 29]: 20 | Plant response rating, Horseweed [1, 30]: 60 | Plant response rating, Sedge, Umbrella (Flood) [2]: 95 | Soybean plant response rating ([3]; 500 g ai/ha): 100 | Soybean plant response rating ([3]; Test C, 125 g ai/ha): 90 | Plant response rating, Barnyardgrass [4]: 100 | Barnyardgrass plant response rating [4]: 70 | Corn plant response rating ([5]; 500 g ai/ha): 40 | Corn plant response rating ([5]; Test C, 125 g ai/ha): 0 | Foxtail, Green plant response rating ([6]; 500 g ai/ha): 100 | Foxtail, Green plant response rating ([6]; Test C, 125 g ai/ha): 100 | Plant response rating, Soybean [7, 29]: 100 | Plant response rating, Wheat [8, 29]: 80 | Plant response rating, Barnyardgrass (Flood) [9]: 15 | Plant response rating, Ryegrass, Italian [10]: 80 | Plant response rating, Rice (Flood) [11]: 10 | Plant response rating, Blackgrass [12]: 90 | Blackgrass plant response rating [12]: 80 | Plant response rating, Oat, Wild [13, 29]: 90 | Plant response rating, Corn [14, 29]: 40 | Plant response rating, Corn [14, 30]: 90 | Plant response rating, Blackgrass [15, 29]: 80 | Plant response rating, Blackgrass [15, 30]: 90 | Plant response rating, Foxtail, Green [16, 29]: 80 | Plant response rating, Foxtail, Green [16, 30]: 90 | Kochia plant response rating ([17]; 500 g ai/ha): 90 | Kochia plant response rating ([17]; Test C, 125 g ai/ha): 60 | Pigweed, Palmer plant response rating ([18]; 500 g ai/ha): 100 | Pigweed, Palmer plant response rating ([18]; Test C, 125 g ai/ha): 90 | Plant response rating, Ragweed [19, 29]: 30 | Wheat plant response rating ([20]; 500 g ai/ha): 90 | Wheat plant response rating ([20]; Test C, 125 g ai/ha): 40 | Plant response rating, Barnyardgrass [21, 29]: 90 | Plant response rating, Barnyardgrass [21, 30]: 100 | Plant response rating, Pigweed, Palmer [22, 29]: 40 | Oat, Wild plant response rating ([23]; 500 g ai/ha): 90 | Oat, Wild plant response rating ([23]; Test C, 125 g ai/ha): 40 | Plant response rating, Ducksalad (Flood) [24]: 100 | Ragweed plant response rating ([25]; 500 g ai/ha): 60 | Ragweed plant response rating ([25]; Test C, 125 g ai/ha): 10 | Plant response rating, Galium [26, 29]: 100 | Plant response rating, Galium [26, 30]: 100 | Ryegrass, Italian plant response rating ([27]; 500 g ai/ha): 100 | Ryegrass, Italian plant response rating ([27]; Test C, 125 g ai/ha): 90 | Plant response rating, Kochia [28, 29]: 30

CC(C)c1ncn(-c2ccc(S(=O)(=O)C(F)(F)F)c(C(=O)N3C[C@H](C)Oc4c(Cl)cccc43)c2)n1 [Compound 229]
Plant response rating, Horseweed [1, 29]: 0 | Plant response rating, Horseweed [1, 30]: 0 | Plant response rating, Sedge, Umbrella (Flood) [2]: 0 | Plant response rating, Soybean [3, 31]: 0 | Soybean plant response rating ([3]; Test C, 125 g ai/ha): 0 | Plant response rating, Barnyardgrass [4]: 0 | Barnyardgrass plant response rating [4]: 0 | Plant response rating, Corn [5, 31]: 0 | Corn plant response rating ([5]; Test C, 125 g ai/ha): 0 | Plant response rating, Foxtail, Green [6, 31]: 0 | Foxtail, Green plant response rating ([6]; Test C, 125 g ai/ha): 0 | Plant response rating, Soybean [7, 29]: 40 | Plant response rating, Soybean [7, 30]: 40 | Plant response rating, Wheat [8, 29]: 0 | Plant response rating, Wheat [8, 30]: 0 | Plant response rating, Barnyardgrass (Flood) [9]: 0 | Plant response rating, Ryegrass, Italian [10]: 0 | Plant response rating, Rice (Flood) [11]: 0 | Plant response rating, Blackgrass [12]: 0 | Blackgrass plant response rating [12]: 0 | Plant response rating, Oat, Wild [13, 29]: 0 | Plant response rating, Oat, Wild [13, 30]: 0 | Plant response rating, Corn [14, 29]: 0 | Plant response rating, Corn [14, 30]: 0 | Plant response rating, Blackgrass [15, 29]: 0 | Plant response rating, Blackgrass [15, 30]: 0 | Plant response rating, Foxtail, Green [16, 29]: 0 | Plant response rating, Foxtail, Green [16, 30]: 0 | Plant response rating, Kochia [17, 31]: 0 | Kochia plant response rating ([17]; Test C, 125 g ai/ha): 0 | Plant response rating, Pigweed, Palmer [18, 31]: 0 | Pigweed, Palmer plant response rating ([18]; Test C, 125 g ai/ha): 0 | Plant response rating, Ragweed [19, 29]: 0 | Plant response rating, Ragweed [19, 30]: 0 | Plant response rating, Wheat [20, 31]: 0 | Wheat plant response rating ([20]; Test C, 125 g ai/ha): 0 | Plant response rating, Barnyardgrass [21, 29]: 0 | Plant response rating, Barnyardgrass [21, 30]: 0 | Plant response rating, Pigweed, Palmer [22, 29]: 0 | Plant response rating, Pigweed, Palmer [22, 30]: 0 | Plant response rating, Oat, Wild [23, 31]: 0 | Oat, Wild plant response rating ([23]; Test C, 125 g ai/ha): 0 | Plant response rating, Ducksalad (Flood) [24]: 0 | Plant response rating, Ragweed [25, 31]: 0 | Ragweed plant response rating ([25]; Test C, 125 g ai/ha): 0 | Plant response rating, Galium [26, 29]: 0 | Plant response rating, Galium [26, 30]: 0 | Plant response rating, Ryegrass, Italian [27, 31]: 10 | Ryegrass, Italian plant response rating ([27]; Test C, 125 g ai/ha): 0 | Plant response rating, Kochia [28, 29]: 0 | Plant response rating, Kochia [28, 30]: 0
